In PubChem BioAssay (NCI) one finds TGI and GI50 data, which are given here for 25 compounds.

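Method: 48-hour compound exposure of cells in 96-well plates, five concentrations, linear interpolation of endpoints. The concentration for 50% growth inhibition is given as GI50. TGI is the concentration that stops growth completely.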

What all share (test): NCI tumour cell line growth inhibition, 48 h
Test [1] deals with 786-0 renal.
For test [2], the system named is NCI/ADR-RES ovarian.
For test [3], the system named is TK-10 renal.
In test [4] the test system is CAKI-1 renal.
The subject of test [5] is MALME-3M melanoma.
The test system of test [6] is HS 578T breast.
Test [7] relates to HOP-92 NSCLC.
The subject of test [8] is MDA-MB-231 breast.
The subject of test [9] is LOX IMVI melanoma.
Test [10] deals with MDA-MB-435.
Test [11] deals with ACHN renal.
Test [12] concerns A498 renal.
For test [13], the system named is SNB-75 CNS.

`COc1ccc2c(C(=O)c3cn(CCN4CCOCC4)c4ccccc34)cccc2c1`: the TGI in test [1] was greater than 100 µM; in test [2], greater than 100 µM; in test [3], greater than 100 µM; in [4] it was greater than 100 µM; in [5], greater than 75.7 µM; in [6], greater than 100 µM. Further, the TGI in test [7], in [8], in test [9], in test [10], in [11] and in test [12] was greater than 100 µM in each case. The compound also yielded a TGI in test [13] greater than 100 µM.
As for `COc1ccc(C2=C3SC=c4ccccc4=C3ON=C2c2ccccc2)cc1`, the TGI in test [1], in [2], in [3], in test [4], in [5] and in test [6] was greater than 100 µM each time. The TGI in test [7], in test [8], in test [9], in [10], in test [11] and in test [12] was greater than 100 µM each time.
As for `CC(=O)O[C@H]1CC[C@@]2(C)C(=CC[C@H]3[C@@H]4C/C(=C\c5ccc(N(C)C)cc5)[C@H](OC(C)=O)[C@@]4(C)CC[C@@H]32)C1`, the TGI in test [1] amounted to 19.1 µM; in [2], 35.4 µM; in [3], 35.6 µM; in test [5], 29.7 µM; in test [6] it was 9.36 µM; in test [8] it was 29.4 µM. In addition, the TGI in test [9] was 20.8 µM; in test [11] it was 24.4 µM; in [12] it was 36.6 µM; in [13], greater than 100 µM.
In the case of `Oc1cn(-c2ccc(Cl)cc2)nc1-c1n[nH]c(=S)n1-c1ccccc1`, the TGI worked out at 27.1 µM in test [1]; 14.1 µM in test [2]; 58.7 µM in [3]; 35.3 µM in test [4]; 62.9 µM in test [5]; 55.1 µM in test [6]. The TGI is greater than 100 µM in test [7]; greater than 100 µM in test [8]; 5.09 µM in test [10]; greater than 100 µM in test [11]; 37.5 µM in test [12]; greater than 100 µM in test [13].
Turning to `COc1ccc(-c2nc3ncccn3c2-c2ccc(SC)cc2)cc1`, the TGI in test [1] was 46 µM; in [2], 5.24 µM; in test [4] it was 4.96 µM; in test [6], 7.7 µM; in test [7] it was 70.4 µM; in [8], greater than 100 µM. The TGI in [9] was 80.4 µM; in test [10], 0.499 µM; in test [11], 41 µM; in [13], greater than 100 µM.
In the case of `CC(=O)NNc1nc(-c2ccc([N+](=O)[O-])cc2)c(C#N)c(=O)n1C`, the TGI in test [1] is 47 µM; in test [2], greater than 100 µM; in test [3], 72.8 µM; in test [4] it was greater than 100 µM; in [5] it was greater than 100 µM; in test [6], 99.5 µM. Further, the TGI in test [7] was 33.3 µM; in [8], 34.2 µM; in test [9] it was 41.3 µM; in test [10], greater than 100 µM; in test [11] it was greater than 100 µM; in test [12] it was 75.5 µM. The compound further had a TGI in test [13] of 54.9 µM.
With `CN(C)C(=O)/C=C/c1c[nH]c(=O)[nH]c1=O`, the TGI in test [2], in test [4], in [5], in [7], in test [9] and in test [12] was greater than 500 µM throughout. In [13], the TGI was greater than 500 µM.
As to `Cc1c2cccc-2c(OCCO)cc2c3ccccc3n(C)c12`, the TGI was 16.2 µM in [1]; greater than 100 µM in [2]; 23.4 µM in [3]; 26.6 µM in [4]; 17 µM in [5]; 7.15 µM in test [6]. The TGI was 6.13 µM in test [7]; 10 µM in [8]; 8.15 µM in [9]; 25.2 µM in [10]; 24 µM in [11]; 24 µM in test [12]. The compound also registered a TGI in test [13] of 35.5 µM.
On to `C[C@H]1C(=O)O[C@@H]2CCN3CC=C(COC(=O)[C@](C)(O)[C@@]1(C)O)[C@H]23`, for which the TGI in test [1], in test [2], in test [3], in test [4], in test [6] and in test [7] was greater than 100 µM in each case. The TGI in test [8], in test [9], in test [10], in [11], in test [12] and in test [13] was greater than 100 µM each time.
With `COc1cc(/C=C/C(=O)Oc2ccc(NC(C)=O)cc2)ccc1C(=O)O/C=C/c1ccccc1`, the TGI in test [2], in test [5], in test [7], in test [9], in [12] and in test [13] was greater than 100 µM each time.
On to `COc1ccc2c(c1)CCCN2CCCCCCCCCCN(CCC(C)C)CCC(C)C`, for which the TGI worked out at 27.5 µM in test [1]; 31.9 µM in [3]; 28.9 µM in test [4]; 28.1 µM in test [5]; 17 µM in test [7]; 29.1 µM in [9]. For the same compound, the TGI in test [11] turned out to be 22.8 µM; in test [12] it was 31 µM.
For `Nc1n[nH]c(=O)c2c1c(I)cn2C1OC(CO)C(O)C1O` (stereo not drawn), the TGI in test [3] was greater than 100 µM; in [5], 17.3 µM; in test [7], 3.05 µM; in test [9], 10.6 µM; in test [11], greater than 100 µM; in test [12], greater than 100 µM. In addition, the TGI in test [13] came to 2.81 µM.
On to `COc1ccc(/C(Cl)=C(\C=O)c2ccc(OC)cc2)cc1`, for which the TGI in test [3], in test [4], in test [5], in test [9], in test [11] and in test [12] was greater than 100 µM throughout. The TGI in test [13] was greater than 100 µM.
Take `CCCOC(=O)CNC(=O)OC(C)(C)C`: the TGI in [3], in test [4], in [5], in test [7], in [9] and in [11] was greater than 100 µM each time. This compound also displayed a TGI in [13] greater than 100 µM.
With `CCc1nc(N)nc(N)c1-c1ccc([N+](C)(C)C)cc1`, the TGI in test [1], in test [2], in [3], in test [4], in test [6] and in test [7] was greater than 100 µM in each case. Besides, the TGI in test [8], in test [9], in test [10], in test [11], in [12] and in [13] was greater than 100 µM throughout.
In the case of `Nc1ccccc1N=Cc1cc2cc([N+](=O)[O-])ccc2s1`, the TGI in [1] is 29.2 µM; in [2] it was greater than 100 µM; in test [3], 29.6 µM; in test [4], greater than 100 µM; in test [5], 81.7 µM; in test [6], 41.8 µM. Also, the TGI in test [7] was 55.5 µM; in test [8], 39.2 µM; in test [9] it was 97.9 µM; in test [10], greater than 100 µM; in [11] it was 40.3 µM; in test [12], 32.5 µM. Further, in test [13], the TGI came to 28.8 µM.
In the case of `COC(C)(C)OCCN1CCN(CCN2C3=C(C=C(C(C)=O)C3)Sc3ccccc32)CC1`, the TGI in test [1] amounted to 36 µM; in test [2] it was 50.2 µM; in test [3] it was 34.6 µM; in [4], 48.2 µM; in test [5] it was 36.6 µM; in test [6] it was 36.5 µM. For the same compound, the TGI in test [7] is 92.9 µM; in test [8] it was 52.4 µM; in test [9], 42.2 µM; in [10], 30.9 µM; in [11] it was 35.5 µM; in test [12], 34 µM. In test [13], this compound yielded a TGI greater than 100 µM.
In the case of `CN(C)CCNC(=O)c1cccc2ccc(-c3ccc(F)cc3)nc12`, the TGI turned out to be 18.4 µM in test [2]; 15.3 µM in test [4]; 13.6 µM in test [5]; 18 µM in test [7]; 9.88 µM in test [9]; 17.5 µM in test [12]. In [13], this compound had a TGI of 19.6 µM.
`COc1cc(C2CC(c3cccc(Nc4ccncc4)c3)=NN2c2ccc(Cl)cc2)cc(OC)c1OC` (stereo not drawn): the GI50 in [4] is 1.41 µM; in [5], 1.66 µM; in test [7], 1.25 µM; in [10] it was 1.62 µM; in test [11], 1.54 µM; in test [12], 1.32 µM. Further, the GI50 in test [13] is 1.28 µM. The TGI in test [4] is 2.76 µM; in test [5] it was 3.11 µM; in test [7], 2.7 µM; in [10] it was 3.08 µM; in [11], 2.88 µM; in [12] it was 6.26 µM. Further, the TGI in test [13] was 2.85 µM.
For the compound `CN(C)CCCn1cnc2cc(Cl)c(Cl)cc21`, the TGI in [1], in test [2], in test [3], in test [4], in test [5] and in test [6] was greater than 100 µM each time. Besides, the TGI is greater than 100 µM in test [8]; greater than 100 µM in [9]; greater than 100 µM in test [10]; greater than 100 µM in [11]; greater than 100 µM in test [12]; 98.9 µM in test [13].
For the compound `O=P1(c2ccccc2)Nc2ccccc2SSc2ccccc2N1`, the TGI in test [2] is 42.3 µM; in test [4] it was 32.4 µM; in test [5] it was 36.9 µM; in test [7], 30.7 µM; in [9], 35.1 µM; in test [12], 41.2 µM. The compound also yielded a TGI in test [13] of 39.4 µM.
In the case of `Cc1cc(/N=C/c2ccc(F)cc2)n(-c2ccccc2)n1`, the TGI in test [1], in [2], in test [3], in test [4], in test [5] and in [6] was greater than 100 µM each time. The TGI in test [7], in [8], in test [9], in test [10], in [11] and in [12] was greater than 100 µM throughout. Besides, the TGI in test [13] is greater than 100 µM.
`Cc1cc2c(cc1C(=O)c1ccc(N)cc1)OCO2`: the TGI in test [1] is greater than 100 µM; in test [2] it was 87.7 µM; in test [3], greater than 100 µM; in test [4], 66.4 µM; in test [5], greater than 100 µM; in test [6] it was greater than 100 µM. Also, the TGI is greater than 100 µM in [7], greater than 100 µM in test [8], 23.4 µM in [10] and greater than 100 µM in test [11].
For `O=C(Nc1ccc([N+](=O)[O-])cc1[N+](=O)[O-])C(=O)C(C(=O)c1ccc2ccccc2c1)C1OC(=O)c2ccccc21` (stereo not drawn), the TGI in test [3] is 61.7 µM; in test [4] it was 54 µM; in test [7], 55.6 µM; in [9], 37.6 µM; in test [11], 73.2 µM; in test [12] it was 52.7 µM. The compound also had a TGI in [13] of 50.7 µM.
On to `FC(F)(F)c1ccc2c(c1)nc(-c1ccc(Cl)cc1)n2CC1CCCN2CCCCC12` (stereo not drawn), for which the TGI in test [1] stood at 27 µM; in test [2] it was 29.2 µM; in test [3], 28.5 µM; in test [4] it was 33.3 µM; in test [5], 29.8 µM; in test [6], 36.3 µM. Further, the TGI in test [7] came out at 29.1 µM; in test [8] it was 20.3 µM; in test [9] it was 29.8 µM; in test [10], 35.8 µM; in test [11], 27.9 µM; in test [12] it was 27.5 µM. For the same compound, the TGI in test [13] worked out at 21.7 µM.
